Measurements reported in patent US20060165739A1, “Alcohol-free microemulsion composition” (Mary Kay Inc., priority 2005, published 2006).
Like-named read-outs stand apart in the source and are kept apart here.

Legend:
Format in all cases: physicochemical
[1] = Fish diagram phase study: surfactant concentration (C) and sebum fraction in oil (F) where Type IV microemulsion forms; conditions: co-oil with artificial sebum, WOR=1
Description: Methods: Phase behavior studies were performed using equal volume of water and oil (or sebum/co-oil mixtures), giving a water/oil ratio (WOR) equal to one. Preliminary studies were conducted to determine preferred formulations and salinity. […] In another non-limiting aspect, a preferred salinity (S*) for this composition was 0.5% NaCl. As noted throughout this document and contemplated by the inventors, these concentrations can be varied. Additionally, the ingredients can also vary. For example, the surfactants, hydrophobic and hydrophilic linkers, co-oils, and hydrotropes that are discussed throughout this document and known to those of ordinary skill in the art can be used with the present invention. Stock solutions of AOT, hexylglucocide, and sorbitan monooleate at the selected weight ratio were prepared at different total surfactant/linker concentrations ranging from 14.19% to 56.06% wt. The phase studies were carried out in 16×125 mm flat-bottomed tubes; 2.5 mL surfactant solution was added, followed by the addition of co-oil, then sebum oil. The total volume of co-oil and sebum oil required is equivalent to the amount of water present in the 2.5 mL surfactant solution; this is to keep WOR equal to one. The fraction of sebum oil in the oil mixtures is varied from zero (100% vol. co-oil) to one (100% vol. sebum oil). The prepared samples were gently shaken once a day for 3 days and left to equilibrate at room temperature for 2 weeks. Phase diagrams (fish diagrams) were constructed by plotting the total surfactant/linker concentration as a function of the sebum fraction in oil. The microemulsion phase (Type I, II, III, and IV) were obtained by visual observation. The effect of salinity (0.5%, 1.5%, and 3% wt. NaCl) and co-oil on the phase behavior was investigated. The fish tail is observed in the high concentration regime whereas the fish body appears in the low concentration regime. A surfactant concentration 14.19% wt was studied. As discussed throughout this document, however, the surfactant concentration can be varied. At lower surfactant concentrations, slow phase separation kinetics made it difficult to map out the three phase region. The surfactant concentration and the sebum fraction of oil at which the body and tail of the fish meet are denoted by “C” and “F”, respectively. The concentration C for this system, approximately, is 25% wt. surfactant concentration at the fraction F of 0.4, as summarized in Table 4.

[2] = Optimum salinity (S*) of co-oil/sebum oil mixtures in phase behavior studies with the AOT/sorbitan monooleate/hexylglucocide system; conditions: NaCl
Description: Methods: Phase behavior studies were performed using equal volume of water and oil (or sebum/co-oil mixtures), giving a water/oil ratio (WOR) equal to one. Preliminary studies were conducted to determine preferred formulations and salinity. […] In another non-limiting aspect, a preferred salinity (S*) for this composition was 0.5% NaCl. As noted throughout this document and contemplated by the inventors, these concentrations can be varied. Additionally, the ingredients can also vary. For example, the surfactants, hydrophobic and hydrophilic linkers, co-oils, and hydrotropes that are discussed throughout this document and known to those of ordinary skill in the art can be used with the present invention.
Stock solutions of AOT, hexylglucocide, and sorbitan monooleate at the selected weight ratio were prepared at different total surfactant/linker concentrations ranging from 14.19% to 56.06% wt. The phase studies were carried out in 16×125 mm flat-bottomed tubes; 2.5 mL surfactant solution was added, followed by the addition of co-oil, then sebum oil. The total volume of co-oil and sebum oil required is equivalent to the amount of water present in the 2.5 mL surfactant solution; this is to keep WOR equal to one. The fraction of sebum oil in the oil mixtures is varied from zero (100% vol. co-oil) to one (100% vol. sebum oil). The prepared samples were gently shaken once a day for 3 days and left to equilibrate at room temperature for 2 weeks. Phase diagrams (fish diagrams) were constructed by plotting the total surfactant/linker concentration as a function of the sebum fraction in oil. The microemulsion phase (Type I, II, III, and IV) were obtained by visual observation. The effect of salinity (0.5%, 1.5%, and 3% wt. NaCl) and co-oil on the phase behavior was investigated.
(§1) Formulating microemulsions requires the combination of variables that will provide a middle phase microemulsion. Salager et al. (1979) proposed a semi empirical equation that relates the different formulation variables: Ln(S*)=k(EACN)+f(A)−σ+αTΔT Where S* is an optimum salinity, or electrolyte concentration; k is a constant, normally, between 0.1 to 0.17, and EACN is the equivalent alkane carbon number for nonlinear hydrocarbon (e.g. triglycerides). Although preferred salinity concentrations may exist, the inventors contemplate that salinity levels can and will vary. For example, a person of ordinary skill in the art will recognize that salinity levels may vary depending on the desired effects of a given product, protocol, or individual characteristics of a user of the product. For linear hydrocarbon, alkane carbon number (ACN) is applied. The EACN is estimated based on the optimum salinity obtained in the inventors' formulation studies. The higher the optimum salinity, the more the hydrophobicity or EACN of the oil. The effect of alcohol or additives is noted by f(A), σ is a function of the type of the surfactant, α is a constant, and T is the temperature of the system. However, in this study, alcohol is not included and the temperature of the system is constant.

[3] = Equivalent alkane carbon number (EACN) of co-oils
Text: as §1
The EACN of squalene is 24 and isopropyl myristate (IPM) is 13. The EACN for squalane is expected to be close to the value for squalene (˜24).

[4] = oil mixture 20% co-oil / 80% sebum (vol.)
[5] = oil mixture 40% co-oil / 60% sebum
[6] = oil mixture 60% co-oil / 40% sebum
[7] = oil mixture 80% co-oil / 20% sebum

## CCCCCCCCCCCCCC(=O)OC(C)C [IPM, isopropyl myristate]
[1]; [NaCl] 0.50%
  Concentration (C) of surfactant at which Type IV microemulsion forms: 25 % wt.
  sebum fraction in oil (F) at which Type IV microemulsion forms: 0.5
[1]; [NaCl] 1.50%
  Concentration (C) of surfactant at which Type IV microemulsion forms: 38 % wt.
  sebum fraction in oil (F) at which Type IV microemulsion forms: 0.175
[2]; 100% co-oil / 0% sebum
  S* (optimum salinity): 3.5%
[2]; [4]
  S* (optimum salinity): less than 0.5%
[2]; oil mixture 20% co-oil / 80% sebum (vol.), listed as Isopropyl Myristate (IPM)
  S* (optimum salinity): <0.5%
[2]; [5]
  S* (optimum salinity): 0.5%
[2]; [6]
  S* (optimum salinity): 0.8%
[2]; [7]
  S* (optimum salinity): 1.5%
[3]
  EACN: 13

## CCCCCCCCCCCC(=O)OCC [EL, ethyl laurate]
[1]; [NaCl] 0.50%
  Concentration (C) of surfactant at which Type IV microemulsion forms: 25 % wt.
  sebum fraction in oil (F) at which Type IV microemulsion forms: 0.4
[1]; [NaCl] 1.50%
  Concentration (C) of surfactant at which Type IV microemulsion forms: 38 % wt.
  sebum fraction in oil (F) at which Type IV microemulsion forms: 0.02
[2]; 100% co-oil / 0% sebum
  S* (optimum salinity): 1-1.5%
[2]; [4]
  S* (optimum salinity): <0.5%
[2]; [5]
  S* (optimum salinity): <0.5%
[2]; [6]
  S* (optimum salinity): <0.5%
[2]; [7]
  S* (optimum salinity): 0.5-0.7%
[3]
  EACN: < 13
[3]; listed as Ethyllaurate (EL)
  EACN: <13

## CC(C)=CCC/C(C)=C/CC/C(C)=C/CC/C=C(\C)CC/C=C(\C)CCC=C(C)C [Squalene]
[1]; [NaCl] 0.50%
  Concentration (C) of surfactant at which Type IV microemulsion forms: ~25 % wt.
  sebum fraction in oil (F) at which Type IV microemulsion forms: 0.45
[1]; [NaCl] 0.50%, listed as squalene
  sebum fraction in oil (F) at which Type IV microemulsion forms: 0.4
[3]
  EACN: 24

## CC(C)CCCC(C)CCCC(C)CCCCC(C)CCCC(C)CCCC(C)C (centres unmarked) [Squalane, 2,6,10,15,19,23-Hexamethyltetracosane]
[1]; [NaCl] 0.50%
  Concentration (C) of surfactant at which Type IV microemulsion forms: 25 % wt.
  sebum fraction in oil (F) at which Type IV microemulsion forms: 0.35
[1]; [NaCl] 1.50%
  Concentration (C) of surfactant at which Type IV microemulsion forms: 35 % wt.
  sebum fraction in oil (F) at which Type IV microemulsion forms: 0.2
[1]; [NaCl] 3.00%
  Concentration (C) of surfactant at which Type IV microemulsion forms: 42 % wt.
  sebum fraction in oil (F) at which Type IV microemulsion forms: 0.15
